Measurements: US20260315436A1, “METHOD OF TREATING DISORDERS WITH SURF1 MALFUNCTION” (Cure Mito Foundation, priority 2023, published 2026)
Entries after “also recorded” stand apart in the source; their conditions may differ.

How the values were obtained:
Assay type in all cases: cell-based, human
[1] = system: SURF1-mutant midbrain organoids; test: Neuronal staining (TH, MAP2, SMI312) in SURF1-mutant midbrain organoids
Experimental: (§1) The effect of Sertaconazole in brain organoids carrying mutations in the gene SURF1 was measured.
(§2) FIG. 29A depicts lactate released in the media by SURF1-mutant midbrain organoids compared to isogenic control organoids. There is an aberrant increase of lactate release by SURF1-mutant organoids. FIG. 29B depicts quantification of lactate in the media of SURF1-mutant midbrain organoids that were treated with either DMSO vehicle or 0.1 μM Sertaconazole for 1 week. […] SURF1-mutant midbrain organoids were treated with either the DMSO vehicle or 0.1 μM Sertaconazole for 1 week. […] FIG. 29D depicts representative images of SURF1-mutant midbrain organoids treated with either the DMSO vehicle or Sertaconazole.
FIG. 29A depicts lactate released in the media by SURF1-mutant midbrain organoids compared to isogenic control organoids. The amount of lactate was quantified using a commercial kit. […] FIG. 29B depicts quantification of lactate in the media of SURF1-mutant midbrain organoids that were treated with either DMSO vehicle or 0.1 μM Sertaconazole for 1 week Media was collected and analyzed for lactate content using a commercial kit. […] SURF1-mutant midbrain organoids were treated with either the DMSO vehicle or 0.1 μM Sertaconazole for 1 week. The organoids were then fixed and stained with antibodies against Tyrosine Hydroxylase (TH) (a marker of dopaminergic neurons), MAP2 (a marker for neuronal dendrites), and SMI312 (a marker for neuronal axons). Significant values were calculated using the non-parametric Mann-Whitney test. […] Sertaconazole can represent an effective repositionable drug for children affected by Leigh syndrome.

SURF1-mutant neurons = test: Neurite outgrowth in SURF1-mutant neurons (MAP2 high-content imaging)
Experimental: The effect of Sertaconazole in human neurons carrying mutations in the gene SURF1 was measured. Hit compounds were filtered and selected to test their effect on neuronal morphogenesis. CRISPR/Cas9 engineered isogenic SURF1 mutant iPSCs on which neural commitment via overexpression of NGN2 was forced were used.
(§3) FIG. 28A depicts quantification of total neurite area in SURF1-mutant neurons. Each value represents the total neurite area in each well of a 96-well plate. Significant values were calculated using the non-parametric Mann-Whitney test and defective neurite development in SURF1-mutant cells was found FIG. 28B depicts quantification of total neurite area in SURF I-mutant neurons treated with either the DMSO vehicle or Sertaconazole at different concentrations. Neurite area was measured 5 days after induction of NGN2 overexpression, using high-content image analysis of MAP2-positive stained neuronal cells. Each value represents the total neurite area in each well of a 96-well plate.
Hit compounds were filtered and selected to test their effect on neuronal morphogenesis CRISPR/Cas9 engineered isogenic SURF1 mutant iPSCs on which neural commitment via overexpression of NGN2 was forced were used.
as §3, with “plate. […]” for “plate. Significant values were calculated using the non-parametric Mann-Whitney test and defective neurite development in SURF1-mutant cells was found”, “in SURF1-mutant” for “in SURF I-mutant”, “plate. […] FIG. 28C depicts representative images of SURF1 mutant neurons treated with either the DMSO vehicle or Sertaconazole.” for “plate.”

[2] = system: GM28010 SURF1 mutant fibroblasts; test: Seahorse mitochondrial stress test, fibroblast cell line GM28010 (Experiment 1, single compounds); conditions: 48 h
Experimental: (§4) In order to evaluate selected compounds' impact on mitochondrial function in patient-derived fibroblasts compared to controls, three seahorse assays were conducted, Exp. 1: Fibroblast cell line GM28010—single compounds; Exp. 2. Fibroblast cell line GM28010—combination of compounds+ Single compounds; and Exp. 3: Fibroblast cell line GM28012—single compounds. Seahorse XF24 Extracellular Flux Analyzers continuously measure oxygen concentration and proton flux in the cell supernatant over time (Wu et al., 2007). The oxygen concentration and proton flux measurements are converted in OCR and ECAR values. This enables a direct quantification of mitochondrial respiration and glycolysis. The aim of the seahorse assays is to evaluate the impact of selected compounds on mitochondrial function in patient-derived fibroblasts compared to controls. Compounds used in the seahorse assays include posacanazole, sertaconazole, glabridin, zinglibroside (ginsenoside Z R1), AM281, cysteamine bitrartate, PF-06447475, losmapimod, telepravir, miltefosine, incyclinide, poziotinib, and methylene blue.
Fibroblast cell line GM28010 is a primary human fibroblast cell line obtained from patients with SURF1 Leigh syndrome. It was purchased from the Coriell Cell Repositories (Camden, NJ, repository number GM28010). Cell line GM00038 was used as a healthy control for GM28010 and is a primary human fibroblast purchased from the Coriell Cell Repositories (Camden, NJ, repository number GM00038).
Fibroblasts were grown in glucose according to recommendation.
Cells were plated in XF96 plates in culture medium and were plated at 10,000 cells/well.
The day after plating, cells were treated with the compounds in Table 1. The treatments were completed in glucose medium and galactose medium. The compounds were tested at for 48 hours. The compounds were incubated at (37 C, 5% CO2) until the day of the experiment.
*Fibroblasts were run at passage numbers: GM28010 SURF1 Fibroblasts P5; GM00038F controls P9.
• Assay Medium: 10 mM glucose or galactose DMEM supplemented with 2 mM glutamine and 1 mM pyruvate. • Injection Ports for basal glucose: Port A: 2 μM oligomycin; Port B: 2.5 μM FCCP; Port C: 4 μM FCCP; and Port D: 2 μM rotenone and antimycin A.
Data were normalized to cell number per well after the run. The Hoechst-stained nuclei were counted with the Operetta High-Content Imager.
(§5) • Basal Oxygen Consumption (OCR): This reflects the cellular oxygen usage under basal conditions, encompassing both energy production (ATP turnover) and background oxygen leak from the mitochondria. • Oligomycin Injection: Oligomycin is a compound that inhibits ATP synthase, an enzyme crucial for ATP production within mitochondria. • Oligomycin-resistant Respiration: After oligomycin injection, minimal oxygen consumption persists, representing non-ATP linked oxygen leak from the mitochondria, often termed proton leak. • ATP-linked Respiration: This value is derived by subtracting the oligomycin-resistant respiration from the basal OCR. It signifies the oxygen consumption specifically linked to ATP production through mitochondrial oxidative phosphorylation. • Mitochondrial Bioenergetic Efficiency: This parameter reflects the percentage decrease in oxygen consumption observed after oligomycin injection, indicating the mitochondria's efficiency in utilizing oxygen for ATP generation. • FCCP Injection: FCCP is a chemical that disrupts the link between mitochondrial electron transport and ATP production. • Maximal Respiration: Following FCCP injection, the highest oxygen consumption rate is measured, representing the maximum capacity of the mitochondria to utilize oxygen for respiration. • Spare Respiratory Capacity: This parameter is calculated by subtracting basal respiration from maximal respiration.

[3] = system: SURF1-mutant midbrain organoids; test: Lactate released in the media by SURF1-mutant midbrain organoids; conditions: 0.1 μM, 1 week; vs DMSO; Mann-Whitney ****p<0.0001
Experimental: as §1, §2
FIG. 29A depicts lactate released in the media by SURF1-mutant midbrain organoids compared to isogenic control organoids. The amount of lactate was quantified using a commercial kit. […] FIG. 29B depicts quantification of lactate in the media of SURF1-mutant midbrain organoids that were treated with either DMSO vehicle or 0.1 μM Sertaconazole for 1 week Media was collected and analyzed for lactate content using a commercial kit. […] SURF1-mutant midbrain organoids were treated with either the DMSO vehicle or 0.1 μM Sertaconazole for 1 week. […] Significant values were calculated using the non-parametric Mann-Whitney test. […]

[4] = system: GM28012 SURF1 fibroblasts; test: Seahorse mitochondrial stress test, fibroblast cell line GM28012 (Experiment 3, single compounds); conditions: 48 h
Experimental: as §4, §5
GM28010 primary human fibroblasts obtained from patients with SURF1 Leigh syndrome were purchased from the Coriell Cell Repositories (Camden, N.J.; repository number GM28010).
GM00038 primary human fibroblasts purchased from the Coriell Cell Repositories (Camden, N.J., repository number GM00038) and were used as a healthy control.
Fibroblasts were grown in glucose according to recommendation. Cells were plated in XF96 plates in culture medium and plated at 10,000 cells/well. The day after plating, the cells were treated with the compounds. The treatments completed in glucose medium and galactose medium. The compounds were tested at for 48 hours. The compounds were incubated at (37 C, 5% CO2) until the day of the experiment. The fibroblasts were run at passage numbers: GM28012 SURF1 Fibroblasts P5.
The assay medium was 10 mM glucose or galactose DMEM supplemented with 2 mM glutamine and 1 mM pyruvate. Injection Ports for basal glucose: Port A: 2 μM oligomycin; Port B: 2.5 μM FCCP; Port C: 4 μM FCCP; and Port D: 2 μM rotenone and antimycin A.
The data were normalized to cell number per well after the run. The Hoechst-stained nuclei were counted with a Operetta High-Content Imager.

[5] = glucose and galactose conditions

Clc1ccc(C(Cn2ccnc2)OCc2csc3c(Cl)cccc23)c(Cl)c1 (stereo not shown) [Sertaconazole, sertaconazole]
amount of TH-positive dopaminergic neurons ([1]; 0.1 μM, 1 week, vs DMSO): increased the amount of TH-positive dopaminergic neurons; also recorded: increase in TH neurons was evident but did not reach statistical significance
overall neuronal branching organization ([1]; 0.1 μM, 1 week, vs DMSO): rescued the overall neuronal branching organization
amount of neuronal processes ([1]; 0.1 μM, 1 week, vs DMSO, Mann-Whitney *p<0.05): corrected the increased the amount of neuronal processes
neuromorphogenesis and lactate defects in SURF1-mutant midbrain organoids ([1]; FIG. 29): ameliorates neuromorphogenesis and lactate defects
total neurite area (defective neurite development in SURF1-mutant cells) (SURF1-mutant neurons; 5 days after NGN2 induction, vs DMSO, Mann-Whitney **p<0.01): correction of defective neurite development
neuromorphogenesis defects in SURF1-mutant neurons (SURF1-mutant neurons; FIG. 28): ameliorates neuromorphogenesis defects
rescue of neurite outgrowth capacity (SURF1-mutant neurons; NGN2-induced SURF1 mutant neurons, FIG. 28): dose-dependent rescue of neurite outgrowth capacity
ATP production [2]: no effect on ATP production
maximal OCR ([2]; all concentrations): ↓ maximal OCR@ all conc;
respiration [2, 5]: did not result in major changes
amount of lactate released to the media [3]: reduced the aberrant release of lactate; also recorded: decreases the aberrant amount of lactate
respiration [4, 5]: decreased respiration
ATP production through glycolysis ([4]; higher concentrations): increased ATP production through glycolysis; also recorded: lower concentration; ↑ATP
